According to DBAASP:
In brackets after ≈: the same amount, converted by molar mass. Several values for one entry are separate records, joined by “and”; a condition that tells them apart may be missing. Equal entries are not always repeated.

Key:
Experiment in all cases: ≥ marks a high value that may be exact or a test limit, other limits are often not marked, values filed in µg/mL are converted to µM
[1] = test system: Bacillus subtilis KCTC 3068
[2] = test system: Staphylococcus aureus KCTC 1621
[3] = test system: Escherichia coli KCTC 1682
[4] = test system: Salmonella typhimurium KCTC 1926
[5] = test system: Pseudomonas aeruginosa KCTC 1637
[6] = test system: Staphylococcus epidermidis KCTC 1917
[7] = test system: Staphylococcus aureus NCTC 8325
[8] = test system: Escherichia coli ATCC 25922
[9] = test system: Pseudomonas aeruginosa PAO1
[10] = test system: Klebsiella pneumoniae ATCC 13883
[11] = test system: Staphylococcus aureus USA 300
[12] = test system: Staphylococcus aureus ATCC 25923
[13] = test system: Candida albicans ATCC 2002
[14] = test system: Pseudomonas aeruginosa CMCCB 10104
[15] = test system: Staphylococcus aureus
[16] = test system: Acinetobacter baumannii ATCC 19606
[17] = test system: Pseudomonas aeruginosa
[18] = test system: Pseudomonas aeruginosa ATCC 27853
[19] = test system: Acinetobacter baumannii
[20] = test system: Klebsiella pneumoniae
[21] = test system: Escherichia coli
[22] = test system: Salmonella enterica subsp. enterica serovar Typhimurium ATCC 14028

Row | SMILES | MIC [8] | MIC [12] | MIC [13] | MIC [14] | also measured
1 | CC(C)C[C@H](NC(=O)[C@H](Cc1ccccc1)NC(=O)[C@H](CCCN=C(N)N)NC(=O)[C@H](CCCCN)NC(=O)[C@H](Cc1c[nH]c2ccccc12)NC(=O)[C@H](CCCN=C(N)N)NC(=O)[C@H](CCC(N)=O)NC(=O)[C@@H](NC(=O)[C@H](Cc1c[nH]c2ccccc12)NC(=O)[C@H](CCCN=C(N)N)NC(=O)[C@H](CCCCN)NC(=O)[C@@H](N)Cc1ccccc1)C(C)C)C(=O)N[C@@H](CCCN=C(N)N)C(N)=O [FKRWVQRWKRFLR] | – | – | – | – | MIC [1]: 2 µM (≈ 3.81 µg/mL); MIC [2]: 2 µM (≈ 3.81 µg/mL); MIC [3]: 4 µM (≈ 7.62 µg/mL); MIC [4]: 2 µM (≈ 3.81 µg/mL); MIC [5]: 16 µM (≈ 30.5 µg/mL); MIC [6]: 4 µM (≈ 7.62 µg/mL)
2 | CC(C)C[C@H](NC(=O)[C@H](CC(C)C)NC(=O)[C@H](CCCCN)NC(=O)CNC(=O)[C@H](CC(C)C)NC(=O)[C@H](C)NC(=O)[C@H](CO)NC(=O)[C@H](CC(C)C)NC(=O)[C@H](CC(C)C)NC(=O)[C@H](CO)NC(=O)[C@H](CC(C)C)NC(=O)[C@H](CC(C)C)NC(=O)CN)C(N)=O [GLLSLLSALGKLL] | > 25 µM | – | – | – | MIC [9]: > 25 µM; MIC [10]: 25 µM (≈ 32.4 µg/mL); MIC [11]: 1.56 µM (≈ 2.02 µg/mL)
3 | CC(C)C[C@H](NC(=O)[C@H](CC(C)C)NC(=O)[C@H](CCCCN)NC(=O)[C@H](CCCCN)NC(=O)[C@H](Cc1c[nH]c2ccccc12)NC(=O)[C@H](CC(C)C)NC(=O)[C@H](CCCCN)NC(=O)[C@H](CCCCN)NC(=O)[C@H](CC(C)C)NC(=O)[C@@H](N)CCCCN)C(=O)N[C@@H](CCCCN)C(N)=O [KLKKLWKKLLK] | – | – | – | – | MIC [1]: 8.77 µM and 17.5 µM
4 | CC(C)C[C@H](NC(=O)[C@H](CCCN=C(N)N)NC(=O)[C@H](CCCN=C(N)N)NC(=O)[C@H](C)NC(=O)[C@H](Cc1c[nH]c2ccccc12)NC(=O)CNC(=O)[C@H](CCCN=C(N)N)NC(=O)[C@@H](N)CCCN=C(N)N)C(=O)N[C@@H](C)C(=O)N[C@@H](C)C(=O)N[C@@H](C)C(=O)N[C@@H](Cc1ccc(O)cc1)C(=O)NCC(=O)N[C@@H](CCCN=C(N)N)C(=O)N[C@@H](CCCN=C(N)N)C(N)=O [RRGWARRLAAAYGRR] | 18.1 µM and 30 µM | > 30 µM | – | – | MIC [16]: 25.4 µM and 30 µM; MIC [10]: 30 µM (≈ 54.5 µg/mL); MIC [22]: > 30 µM
5 | CC[C@H](C)[C@H](NC(=O)[C@H](Cc1ccccc1)NC(=O)[C@H](CCCN=C(N)N)NC(=O)[C@@H](NC(=O)[C@@H]1CCCN1C(=O)[C@H](CO)NC(=O)[C@H](CC(C)C)NC(=O)[C@H](C)NC(=O)[C@H](C)NC(=O)[C@H](CCCCN)NC(=O)[C@H](CC(N)=O)NC(=O)[C@H](CCSC)NC(=O)CNC(=O)[C@@H](NC(=O)[C@H](CCC(N)=O)NC(=O)[C@H](CC(=O)O)NC(=O)[C@H](C)NC(=O)[C@@H](N)CO)[C@@H](C)O)[C@@H](C)CC)C(=O)N[C@@H](CO)C(=O)N[C@@H](CCCCN)C(=O)N[C@@H](CO)C(=O)N[C@H](C(=O)O)C(C)C [SADQTGMNKAALSPIRFISKSV] | > 86.1 µM | > 86.1 µM | ≥ 86.1 µM | ≥ 86.1 µM | –
6 | CC[C@H](C)[C@H](NC(=O)[C@H](CC(C)C)NC(=O)[C@H](CC(C)C)NC(=O)[C@H](CC(=O)O)NC(=O)[C@H](CCCCN)NC(=O)[C@@H](NC(=O)[C@@H](NC(=O)CNC(=O)[C@H](CC(C)C)NC(=O)[C@@H](NC(=O)[C@@H](N)CO)C(C)C)[C@@H](C)O)C(C)C)C(=O)NCC(=O)N[C@@H](C)C(=O)NCC(=O)N[C@@H](CCCCN)C(=O)N[C@@H](CO)C(=O)N[C@@H](C)C(=O)N[C@@H](C)C(=O)N[C@@H](CCC(N)=O)C(=O)N[C@@H](CO)C(=O)N[C@H](C(=O)N[C@@H](CC(C)C)C(=O)N[C@H](C(=O)N[C@@H](C)C(=O)N[C@@H](CC(N)=O)C(=O)N[C@@H](CO)C(=O)N[C@H]1CSSC[C@@H](C(=O)O)NC(=O)[C@H](CO)NC(=O)[C@H](CC(N)=O)NC(=O)[C@H](CO)NC(=O)[C@H](CC(C)C)NC(=O)[C@H](CCCCN)NC1=O)[C@@H](C)O)C(C)C [SVLGTVKDLLIGAGKSAAQSVLTANSCKLSNSC] | 3.65 µM (≈ 11.8 µg/mL) | 1.82 µM (≈ 5.9 µg/mL) | 3.65 µM (≈ 11.8 µg/mL) | 3.65 µM (≈ 11.8 µg/mL) | –
7 | CC[C@H](C)[C@H](NC(=O)[C@H](CCCCN)NC(=O)[C@H](CCCCN)NC(=O)CNC(=O)[C@H](CCSC)NC(=O)[C@H](CO)NC(=O)[C@@H](NC(=O)[C@@H](NC(=O)[C@H](CC(N)=O)NC(=O)CNC(=O)[C@H](CC(C)C)NC(=O)[C@H](Cc1ccccc1)NC(=O)[C@@H](N)C(C)C)[C@@H](C)CC)C(C)C)C(=O)O [VFLGNIVSMGKKI] | > 142 µM | > 142 µM | ≥ 142 µM | ≥ 142 µM | –

Continued by falling MIC [8], values first:

Row | MIC [8] | MIC [12] | MIC [13] | MIC [14] | SMILES | also measured
8 | 3 µM (≈ 10.6 µg/mL) | – | – | – | CSCC[C@H](NC(=O)[C@H](CC(C)C)NC(=O)[C@H](CO)NC(=O)CNC(=O)[C@H](C)NC(=O)[C@@H](NC(=O)[C@H](CC(N)=O)NC(=O)[C@H](CCCCN)NC(=O)[C@H](CC(C)C)NC(=O)[C@@H](NC(=O)[C@H](CC(N)=O)NC(=O)[C@H](CCCCN)NC(=O)CNC(=O)[C@@H](NC(=O)[C@H](CCCCN)NC(=O)[C@H](CCCCN)NC(=O)[C@H](Cc1ccccc1)NC(=O)[C@@H](NC(=O)[C@H](CC(N)=O)NC(=O)[C@H](Cc1ccccc1)NC(=O)[C@H](CC(C)C)NC(=O)CN)C(C)C)C(C)C)C(C)C)C(C)C)C(=O)N[C@@H](CC(=O)O)C(=O)N[C@@H](CC(N)=O)C(=O)N[C@@H](CC(C)C)C(=O)N[C@@H](CCCCN)C(=O)N[C@H]1CSSC[C@@H](C(=O)O)NC(=O)[C@H](CCC(=O)O)NC(=O)CNC(=O)[C@H](CO)NC(=O)[C@H](C(C)C)NC(=O)[C@H](CCCCN)NC1=O [GLFNVFKKVGKNVLKNVAGSLMDNLKCKVSGEC] | MIC [7]: ≥ 50 µM
9 | 2.26 µM (≈ 5.8 µg/mL) | 4.52 µM (≈ 11.6 µg/mL) | 2.26 µM (≈ 5.8 µg/mL) | 4.52 µM (≈ 11.6 µg/mL) | CC[C@H](C)[C@H](N)C(=O)N[C@@H](CC(C)C)C(=O)N1CCC[C@H]1C(=O)N[C@@H](Cc1ccccc1)C(=O)N[C@H](C(=O)N[C@@H](C)C(=O)NCC(=O)N[C@H](C(=O)N[C@@H](C)C(=O)N[C@@H](C)C(=O)N[C@@H](CCC(=O)O)C(=O)N[C@@H](CCSC)C(=O)N[C@@H](CCSC)C(=O)N[C@@H](CCC(N)=O)C(=O)N[C@@H](Cc1cnc[nH]1)C(=O)N[C@H](C(=O)N[C@@H](Cc1ccc(O)cc1)C(=O)N[C@H]1CSSC[C@@H](C(=O)O)NC(=O)[C@H](CCCCN)NC(=O)[C@H](CCCCN)NC(=O)[C@H](CO)NC(=O)[C@H](C)NC(=O)[C@H](C)NC1=O)C(C)C)C(C)C)C(C)C [ILPFVAGVAAEMMQHVYCAASKKC] | –
10 | 1.76 µM (≈ 5.8 µg/mL) | 3.52 µM (≈ 11.6 µg/mL) | 1.76 µM (≈ 5.8 µg/mL) | 7.05 µM (≈ 23.2 µg/mL) | CC[C@H](C)[C@H](NC(=O)[C@H](CC(C)C)NC(=O)[C@H](CC(C)C)NC(=O)[C@H](CC(=O)O)NC(=O)[C@H](CCCCN)NC(=O)[C@@H](NC(=O)[C@@H](NC(=O)CNC(=O)[C@H](CC(C)C)NC(=O)[C@@H](NC(=O)CN)C(C)C)[C@@H](C)O)C(C)C)C(=O)NCC(=O)N[C@@H](C)C(=O)NCC(=O)N[C@@H](CCCCN)C(=O)N[C@@H](CO)C(=O)N[C@@H](C)C(=O)N[C@@H](C)C(=O)N[C@@H](CCC(N)=O)C(=O)N[C@@H](CO)C(=O)N[C@H](C(=O)N[C@@H](CC(C)C)C(=O)N[C@@H](CCCCN)C(=O)N[C@H](C(=O)N[C@@H](CC(C)C)C(=O)N[C@@H](CO)C(=O)N[C@H]1CSSC[C@@H](C(=O)O)NC(=O)[C@H](CC(=O)O)NC(=O)[C@H](CC(N)=O)NC(=O)[C@H](CO)NC(=O)[C@H]([C@@H](C)CC)NC(=O)[C@H](CCCCN)NC1=O)[C@@H](C)O)[C@@H](C)O [GVLGTVKDLLIGAGKSAAQSTLKTLSCKISNDC] | –
11 | 0.354 µM (≈ 0.724 µg/mL) | 11.3 µM (≈ 23.2 µg/mL) | – | – | CC[C@H](C)[C@H](NC(=O)[C@H](CCCCN)NC(=O)[C@H](CC(C)C)NC(=O)[C@H](C)NC(=O)[C@H](CCCCN)NC(=O)[C@H](CC(C)C)NC(=O)[C@H](C)NC(=O)CNC(=O)[C@H](CCCCN)NC(=O)[C@H](C)NC(=O)[C@@H](NC(=O)[C@@H](N)CCCCN)[C@@H](C)CC)C(=O)N[C@@H](C)C(=O)N[C@@H](CCCCN)C(=O)N[C@H](C(=O)N[C@@H](C)C(=O)N[C@@H](CC(C)C)C(=O)N[C@@H](CCCCN)C(=O)N[C@@H](C)C(=O)N[C@@H](CC(C)C)C(N)=O)C(C)C [KIAKGALKALKIAKVALKAL] | MIC [15]: 5.66 µM (≈ 11.6 µg/mL); MIC [16]: 0.707 µM (≈ 1.45 µg/mL); MIC [17]: 2.83 µM (≈ 5.79 µg/mL); MIC [10]: 2 µM (≈ 4.1 µg/mL); MIC [18]: 2 µM (≈ 4.1 µg/mL); MIC [19]: 0.5 µM (≈ 1.02 µg/mL); MIC [20]: 4 µM (≈ 8.19 µg/mL); MIC [21]: 4 µM (≈ 8.19 µg/mL)
